According to patent US20260258048A1, “LACTAM-CONTAINING IMIDAZOPYRIDAZINE IL-17 INHIBITOR COMPOUNDS” (Janssen Pharmaceutica NV, priority 2023, published 2026):

Legend:
[1] = molecular target: IL-17A(FLAG-tagged): IL-17RA(His-tagged) (Homo sapiens, UniProt Q16552, K93Q); test: IL-17A(FLAG-tagged): IL-17RA(His-tagged) binding disruption Eu-HTRF assay; conditions: class of the average IC50 where tested more than once
Excerpt: IL-17A(FLAG-tagged): IL-17RA(His-tagged) binding disruption Eu-HTRF assay An antibody directed against the FLAG tag of IL-17A (SEQ ID NO: 1) is labeled with the HTRF donor chromophore (Europium-cryptate). IL-17A is present as a dimer that is “locked into” this quaternary structure due to the formation of loop-spanning intramolecular disulfide bridges. The construct of IL-17RA used in the assay excludes the […] portion of the receptor and is fused to a C-terminal 10×His tag (SEQ ID NO:2). An antibody directed against the His tag of the IL-17RA chimera is labeled with the HTRF acceptor chromophore (“D2”). The fluorescence-resonance energy transfer (FRET) depends on the vicinity of the donor chromophore to the acceptor, and interruption of the binding between the IL-17A and IL-17RA causes the reduction/loss of FRET. Therefore, this assay allows to evaluate the compound effect on the binding IL-17A and IL-17RA by monitoring the fluorescence intensity of donor vs acceptor. The assay is run as described below.
40 nl of 2-fold serial diluted compound solution for total 22 dilution points is added into each well of a 1536-well, white, low-volume, non-binding plate (Greiner #782904), then 2 μl of FLAG tagged IL-17A at 2× final concentration (1 μM) in solution of PBS+0.01% Triton-X100 is added to each well. The assay plate is briefly centrifuged then incubated for 1 h at rt. A mixed solution is prepared containing 2×5 nM 10HIS×IL-17RA, 2×2.5 nM Eu-anti-FLAG (CISBIO), 2×5 nM D2-anti-HIS (CISBIO) in PBS+0.01% Triton-X100+200 mM Potassium Fluoride (Sigma 60238) and 2 μl of mix is added to each well of the assay plate. The plate is briefly centrifuged then incubated for 2 h at rt. The HTRF intensities at the wavelength of donor (615 nm) and acceptor (665 nm) are measured using BMG Pherastar. The ratio between intensities at two wavelengths is calculated and plotted against the compound concentration and the data is fitted to a one-site competition model to yield IC50 of the compound.

[2] = tested on: IL-17A-induced G-CSF production in human normal keratinocyte (NHK); test: NHK assay: IL-17A-induced G-CSF production in normal human keratinocytes; assay type: cell-based; conditions: Homo sapiens, Keratinocyte, 24 h, IL-17A 5 ng/mL, class of the average IC50 where tested more than once
Procedure: IL-17A acts directly on keratinocytes through binding to dimeric receptor IL-17RA/RC and drives the production of a number of inflammatory mediators known to be elevated in psoriasis lesional tissue. IL-17A small molecule inhibitors that block the IL-17A to interact with IL-17R would inhibit the IL-17A signaling in its targeted cells such as keratinocytes. The compound functional activity is evaluated for its impact on IL-17A-induced G-CSF production in human normal keratinocyte (NHK).
Adult normal human keratinocytes are cultured in keratinocyte growth medium (Lonza) in a flask till reaching ~90% confluence, then cells are transferred to a 384-well plate at density of 3000-4000 cell/well. Recombinant human IL-17A (Gibco PHC9174) is pre-incubated with titrated compound or DMSO for 1 h at rt then added to the cell culture plate. The final concentration of IL-17A is 5 ng/mL and DMSO is 0.2%, in the culture containing 5% FBS. Cells are cultured/treated for 24 h at 37° C. Supernatants are collected and G-CSF production is measured through HTRF technology using Human G-CSF Kit (CisBio). G-CSF concentration was extrapolated from the standard curve and IC50 is determined using GraphPad Prism. Cell viability is also evaluated using CellTiter-Glo kit (Promega) and effect of compound on cell viability is compared to DMSO control.

UniProt Q16552, sequence (Q16552 with tags, fused parts or gaps K93Q): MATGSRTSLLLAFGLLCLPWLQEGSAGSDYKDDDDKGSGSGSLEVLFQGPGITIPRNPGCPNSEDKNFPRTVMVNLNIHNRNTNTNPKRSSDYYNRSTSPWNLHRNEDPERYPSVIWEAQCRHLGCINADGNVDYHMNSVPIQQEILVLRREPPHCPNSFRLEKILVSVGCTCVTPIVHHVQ

`O=C(N[C@H](c1cn2ncc([C@H](O)[C@H]3C[C@H](C(F)(F)F)NC3=O)cc2n1)C1CCC(F)(F)CC1)c1nonc1C1CC1` (relative stereo) [Example 63, 4-Cyclopropyl-N—((S)-(4,4-difluorocyclohexyl)(7-((R*)-hydroxy((3R*,5R*)-2-oxo-5-(trifluoromethyl)pyrrolidin-3-yl)methyl)imidazo[1,2-b]pyridazin-2-yl)methyl)-1,2,5-oxadiazole-3-carboxamide] was tested, and the IC50 [1] was 400 to 4000 nM and the IC50 [2] was > 4000 nM.

With `O=C(N[C@H](c1cn2ncc([C@H](O)[C@@H]3C[C@H](C(F)(F)F)NC3=O)cc2n1)C1CCC(F)(F)CC1)c1nonc1C1CC1` (relative stereo) [Example 64, 4-Cyclopropyl-N—((S)-(4,4-difluorocyclohexyl)(7-((R*)-hydroxy((3S*,5R*)-2-oxo-5-(trifluoromethyl)pyrrolidin-3-yl)methyl)imidazo[1,2-b]pyridazin-2-yl)methyl)-1,2,5-oxadiazole-3-carboxamide] the IC50 [1] was 400 to 4000 nM and the IC50 [2] was < 400 nM.

`CC(C)(CC[C@H](NC(=O)c1nonc1C1CC1)c1cn2ncc([C@H](O)[C@H]3C[C@@H](C(F)(F)F)NC3=O)cc2n1)C(F)(F)F` (relative stereo) [Example 65, 4-Cyclopropyl-N—((S)-5,5,5-trifluoro-1-(7-((R*)-hydroxy((3R*,5S)-2-oxo-5-(trifluoromethyl)pyrrolidin-3-yl)methyl)imidazo[1,2-b]pyridazin-2-yl)-4,4-dimethylpentyl)-1,2,5-oxadiazole-3-carboxamide] was tested, and the IC50 [1] was < 400 nM and the IC50 [2] was < 400 nM.

`O=C(N[C@H](c1cn2ncc(C[C@@H]3C[C@H](C(F)(F)F)NC3=O)cc2n1)C1CCC(F)(F)CC1)c1nonc1C1CC1` (relative stereo) [Example 68, 4-Cyclopropyl-N—((S)-(4,4-difluorocyclohexyl)(7-(((3R*,5R*)-2-oxo-5-(trifluoromethyl)pyrrolidin-3-yl)methyl)imidazo[1,2-b]pyridazin-2-yl)methyl)-1,2,5-oxadiazole-3-carboxamide] gave an IC50 [1] of 400 to 4000 nM and an IC50 [2] of 400 to 4000 nM.

Molecule `O=C(N[C@H](c1cn2ncc(C[C@H]3C[C@H](C(F)(F)F)NC3=O)cc2n1)C1CCC(F)(F)CC1)c1nonc1C1CC1` (relative stereo) [Example 69, 4-Cyclopropyl-N—((S)-(4,4-difluorocyclohexyl)(7-(((3S*,5R*)-2-oxo-5-(trifluoromethyl)pyrrolidin-3-yl)methyl)imidazo[1,2-b]pyridazin-2-yl)methyl)-1,2,5-oxadiazole-3-carboxamide] has an IC50 [1] of 400 to 4000 nM and an IC50 [2] of 400 to 4000 nM.

In the case of `O=C(N[C@H](c1cn2ncc(C[C@@H]3C[C@@H](C(F)(F)F)NC3=O)cc2n1)C1CCC(F)(F)CC1)c1nonc1C1CC1` (relative stereo) [Example 70, 4-Cyclopropyl-N—((S)-(4,4-difluorocyclohexyl)(7-(((3R*,5S*)-2-oxo-5-(trifluoromethyl)pyrrolidin-3-yl)methyl)imidazo[1,2-b]pyridazin-2-yl)methyl)-1,2,5-oxadiazole-3-carboxamide], the IC50 [1] is reported as < 400 nM and the IC50 [2] is reported as < 400 nM.

`O=C(N[C@H](c1cn2ncc(C[C@H]3C[C@@H](C(F)(F)F)NC3=O)cc2n1)C1CCC(F)(F)CC1)c1nonc1C1CC1` (relative stereo) [Example 71, 4-Cyclopropyl-N—((S)-(4,4-difluorocyclohexyl)(7-(((3S*,5S*)-2-oxo-5-(trifluoromethyl)pyrrolidin-3-yl)methyl)imidazo[1,2-b]pyridazin-2-yl)methyl)-1,2,5-oxadiazole-3-carboxamide] was tested, and the IC50 [1] was 400 to 4000 nM and the IC50 [2] was > 4000 nM.

`O=C(N[C@H](c1cn2ncc([C@@H](O)[C@@H]3C[C@@H](C(F)(F)F)NC3=O)cc2n1)C1CCC(F)(F)CC1)c1nonc1C1CC1` (relative stereo) [Example 72, 4-Cyclopropyl-N—((S)-(4,4-difluorocyclohexyl(7-((S*)-hydroxy((3S*,5S*)-2-oxo-5-(trifluoromethyl)pyrrolidin-3-yl)methyl)imidazo[1,2-b]pyridazin-2-yl)methyl)-1,2,5-oxadiazole-3-carboxamide] gave an IC50 [1] of 400 to 4000 nM and an IC50 [2] of 400 to 4000 nM.
